Reference: US20090068243A1, “Novel formulations for delivery of antiviral peptide therapeutics” (priority 2007, published 2009)

Experiments:
[1] = Intravenous pharmacokinetics in cynomolgus monkeys; format: in vivo, cynomolgus monkeys (Macaca fasicularis); settings: for clearance / half-life: cynomolgus monkey, plasma, iv, dosed intravenously; for half-life: read-out: Half-life (t ½; hr) (converted); for biological half-life relative to base sequence, in words: comment on Table 2
Experimental: For determining pharmacokinetic properties, an HIV fusion inhibitor peptide or a base sequence from which an HIV fusion inhibitor peptide is derived was dosed intravenously in cynomolgus monkeys (Macaca fasicularis) (other animal models may be used for determining pharmacokinetic properties, as known in the art). At various times post-dose, blood samples were drawn and plasma isolated by centrifugation. Plasma samples were stored frozen until analysis by LC-MS (liquid chromatography/mass spectrometry) in the electrospray, positive-ion mode. An HIV fusion inhibitor or base sequence was eluted from a C18 or C8 HPLC column with a gradient of acetonitrile in a buffer of 10 mM ammonium acetate, pH 6.8. At the time of analysis, plasma samples were deproteinated with either two or three volumes of acetonitrile containing 0.5% formic acid. Duplicate calibration standards in cynomolgus plasma samples were prepared at the same time as the samples and analyzed before and after the samples containing either HIV fusion inhibitor peptide or base sequence. Pharmacokinetic properties were calculated from the plasma concentration-time data using either mono-exponential or bi-exponential mathematical models. Models were derived by non-linear least squares optimization. A 1/C^2 weighting of concentrations was used. The following equations were used to calculate area-under the plasma concentration vs. time curve (AUC), total body clearance (Cl), and terminal elimination half-life (t ½).
Where A and B are intercepts and a and b are the rate constants of the exponential equations describing the distribution and elimination phases, respectively. When mono-exponential models were used, the “A” and “a” properties were eliminated.
Cl=Dose/AUC (expressed in L/K/hr)
t½=0.6903/b (expressed in hr)

[2] = Stability in aqueous solution (PBS), peptide remaining in solution by HPLC; format: physicochemical; settings: 10 mg/ml in PBS, about pH 7.3 to 7.5, 37° C.
[3] = tested on: HIV-Res; format: cell-based, HIV-1; settings: resistant viral isolate "Res"
Text: Assessment of biological properties included measurement of antiviral activity against HIV-1 strains. In determining antiviral activity (e.g., one measure being the ability to inhibit transmission of HIV to a target cell) of the HIV fusion inhibitor peptides, an in vitro assay which has been shown, by data generated using peptides derived from the HR regions of HIV gp41, to be predictive of antiviral activity observed in vivo was used. […] These assays score for reduction of infectious virus titer employing the indicator cell lines MAGI or the CCR5 expressing derivative cMAGI. Both cell lines exploit the ability of HIV-1 tat to transactivate the expression of a β-galactosidase reporter gene driven by the HIV-LTR. The β-gal reporter has been modified to localize in the nucleus and can be detected with the X-gal substrate as intense nuclear staining within a few days of infection. […] The number of infected cells for each control and peptide dilution was determined with the CCD-imager, and then the IC50 was calculated (expressed in μg/ml).
Viruses resistant to the antiviral activity of a peptide consisting of a base sequence can be produced using standard laboratory methods. […] The cultures are maintained and monitored until syncytia are present. […] The second round of culture is maintained and monitored for presence of virus resistant to the antiviral activity of the peptide. […]

[4] = tested on: HIV-IIIB; settings: 50% reduction in infectious virus titer
Text: Assessment of biological properties included measurement of antiviral activity against HIV-1 strains. […] These assays score for reduction of infectious virus titer employing the indicator cell lines MAGI or the CCR5 expressing derivative cMAGI. Both cell lines exploit the ability of HIV-1 tat to transactivate the expression of a β-galactosidase reporter gene driven by the HIV-LTR. The β-gal reporter has been modified to localize in the nucleus and can be detected with the X-gal substrate as intense nuclear staining within a few days of infection. The number of stained nuclei can thus be interpreted as equal to the number of infectious virions in the challenge inoculum if there is only one round of infection prior to staining. […] In the MAGI and cMAGI assays, a 50% reduction in infectious titer (Vn/Vo=0.5) is significant, and provides the primary cutoff value for assessing antiviral activity (“IC50” is defined as the concentration of active ingredient resulting in a 50% reduction in infectious virus titer). […] The number of infected cells for each control and peptide dilution was determined with the CCD-imager, and then the IC50 was calculated (expressed in μg/ml).

[5] = Thermal stability (Tm) by CD signal at 222 nm; format: physicochemical; settings: CD at 222 nm, maximum of first derivative of thermal transition
Experimental: (§1) Assessment of biophysical parameters included measurement of helicity and thermal stability. Helicity was assessed by circular dichroism (“CD”) as follows. Briefly, CD spectra were obtained using a spectrometer equipped with a thermoelectric temperature controller. The spectra was obtained at 25° C. with 0.5 nanometer (nm) steps from 200 to 260 nm, with a 1.5 nm bandwith, and a typical averaging time of 4 seconds/step. After the cell/buffer blank was subtracted, spectra were smoothed using a third-order least-squares polynomial fit with a conservative window size to give random residuals. Raw ellipticity values were converted to mean residue ellipticity using standard methods, and plotted was the wavelength (from 200 to 260 nm) versus [θ]×10−3 (degrees cm^2/dmol). Percent helicity values were then calculated using standard methods (usually expressed as percent helicity at 10 μM, 25° C.). Assessment of thermal stability was performed by monitoring the change in CD signal at 222 nm as temperature was raised in 2° C. steps, with 1 minute equilibration times. The stability for each sample (e.g., HIV fusion inhibitor peptide), as represented by the Tm value, is the temperature corresponding to the maximum value of the first derivative of the thermal transition.

[6] = Helicity by circular dichroism (CD); format: physicochemical; settings: usually percent helicity at 10 μM, 25° C.
Experimental: as §1

[7] = tested on: 584.000098
Text: (§2) Assessment of biological properties included measurement of antiviral activity against HIV-1 strains. […] These assays score for reduction of infectious virus titer employing the indicator cell lines MAGI or the CCR5 expressing derivative cMAGI. Both cell lines exploit the ability of HIV-1 tat to transactivate the expression of a β-galactosidase reporter gene driven by the HIV-LTR. The β-gal reporter has been modified to localize in the nucleus and can be detected with the X-gal substrate as intense nuclear staining within a few days of infection. The number of stained nuclei can thus be interpreted as equal to the number of infectious virions in the challenge inoculum if there is only one round of infection prior to staining. […] In the MAGI and cMAGI assays, a 50% reduction in infectious titer (Vn/Vo=0.5) is significant, and provides the primary cutoff value for assessing antiviral activity (“IC50” is defined as the concentration of active ingredient resulting in a 50% reduction in infectious virus titer). […] The peptide (in the respective dilution) was added to the cMAGI or MAGI cells, followed by the virus inocula; and 24 hours later, an inhibitor of infection and cell-cell fusion (e.g., SEQ ID NO:2 (enfuvirtide)) was added to prevent secondary rounds of HIV infection and cell-cell virus spread. The cells were cultured for 2 more days, and then fixed and stained with the X-gal substrate to detect HIV-infected cells. The number of infected cells for each control and peptide dilution was determined with the CCD-imager, and then the IC50 was calculated (expressed in μg/ml).
(§3) In particular, in vitro resistance comparison studies were performed between the novel SEQ ID NO:9 compound of interest and established antiviral agent SEQ ID NO:2, described in detail as follows: MT2 cells were infected with virus isolates (IIIB, 030, 060 and 098) and cultured in increasing concentrations of SEQ ID NO:2 (enfuvirtide) or SEQ ID NO:9 to select for resistance. The initial peptide concentration was approximately 2 times the IC50 of each peptide against the corresponding wild type isolate. Peptide concentrations were maintained by adding fresh peptide every 1-3 days. Cultures were monitored for cytopathic effect (CPE) using standard techniques and when maximal CPE was achieved, a small aliquot of virus was used for subsequent rounds of infection. Peptide concentrations were increased 2 to 4-fold depending on the length of time in culture when compared to the growth rate of wild type virus. During the course of selection, peptide-free virus stocks were also collected. Peptide-free virus stocks were characterized for gp41 genotypic changes by dideoxy sequencing chemistries and phenotypic susceptibility was determined using a cMAGI infectivity assay.

[8] = tested on: IIIB; settings: starting virus isolate IIIB
Text: as §2, §3

[9] = tested on: virus isolates (IIIB, 030, 060 and 098); settings: Geometric Mean of four isolates
Text: as §2, §3

[10] = tested on: 584.000030
Text: as §2, §3

[11] = tested on: 584.000060
Text: as §2, §3

## CC[C@H](C)[C@H](NC(=O)[C@H](C)NC(=O)[C@H](CCCNC(=N)N)NC(=O)[C@H](CC(=O)O)NC(=O)[C@H](Cc1c[nH]c2ccccc12)NC(=O)[C@H](C)NC(=O)[C@H](CCC(=O)O)NC(=O)[C@H](Cc1c[nH]c2ccccc12)NC(=O)[C@@H](NC(=O)[C@@H](NC(C)=O)[C@@H](C)O)[C@@H](C)O)C(=O)N[C@@H](C)C(=O)N[C@@H](CCC(=O)O)C(=O)N[C@@H](Cc1ccc(O)cc1)C(=O)N[C@@H](C)C(=O)N[C@@H](C)C(=O)N[C@@H](CCCNC(=N)N)C(=O)N[C@H](C(=O)N[C@@H](CCC(=O)O)C(=O)N[C@@H](C)C(=O)N[C@@H](CC(C)C)C(=O)N[C@H](C(=O)N[C@@H](CCCNC(=N)N)C(=O)N[C@@H](C)C(=O)N[C@@H](C)C(=O)N[C@@H](CCC(N)=O)C(=O)N[C@@H](CCC(=O)O)C(=O)N[C@@H](CCC(N)=O)C(=O)N[C@@H](CCC(N)=O)C(=O)N[C@@H](CCC(=O)O)C(=O)N[C@@H](CCCCN)C(=O)N[C@@H](CC(N)=O)C(=O)N[C@@H](CCC(=O)O)C(=O)N[C@@H](C)C(=O)N[C@@H](C)C(=O)N[C@@H](CC(C)C)C(=O)N[C@@H](CCCNC(=N)N)C(=O)N[C@@H](CCC(=O)O)C(=O)N[C@@H](CC(C)C)C(N)=O)[C@@H](C)CC)[C@@H](C)CC [SEQ ID NO:5]
[1]
  clearance: > 0.667 mL/min/kg
  half-life: 6 h
[2]; time point of 1 week
  peptide remaining detectable in solution: less than 80%

## Ac-TTWEAWDRAIAEYAARIEALIRAAQEQQEKLEAALREL-NH2 (N-terminus and C-terminus assumed) [SEQ ID NO:7]
[1]
  biological half-life relative to base sequence, in words: increased biological half-life
  clearance: < 0.333 mL/min/kg
  half-life: 17 h

## Ac-TTWEAWDRAIAEYAARIEALIRALQEQQEKNEAALREL-NH2 (N-terminus and C-terminus assumed) [SEQ ID NO:6]
[1]
  biological half-life relative to base sequence, in words: increased biological half-life
  clearance: < 0.333 mL/min/kg
  half-life: 15 h

## Ac-TTWEAWDRAIAEYAARIEALLRAAQEQQEKLEAALREL-NH2 [SEQ ID NO:10, TTWEAWDRAIAEYAARIEALLRAAQEQQEKLEAALREL]
[1]
  biological half-life relative to base sequence, in words: increased biological half-life
  clearance: < 0.333 mL/min/kg
  half-life: 21 h
[3]
  Antiviral Activity (μg/ml) HIV-Res IC50: <0.10 µg/mL
[4]
  Antiviral Activity (μg/ml) HIV-IIIB IC50: <0.10 µg/mL
[5]
  Tm (° C.): 75 °C
[6]
  Helicity (%): 77%

## Ac-TTWEAWDRAIAEYAARIEALLRAAQEQQEKNEAALREL-NH2 (N-terminus and C-terminus assumed) [SEQ ID NO:8]
[1]
  biological half-life relative to base sequence, in words: does not exhibit the dramatic increase in half-life
  clearance: > 0.667 mL/min/kg
  half-life: 7 h

## enfuvirtide
[2]
  stability of solution, in words: becomes unstable after just several hours
[7]; starting virus isolate 584.000098
  Fold Change in IC50: 912
[7]; starting virus isolate 584.000098, after selection
  Ending IC50: 45.575 µg/mL
[7]; starting virus isolate 584.000098, before selection
  Starting IC50: 0.05 µg/mL
[8]
  Fold Change in IC50: 27
[8]; after selection
  Ending IC50: 0.163 µg/mL
[8]; before selection
  Starting IC50: 0.006 µg/mL
[9]
  Fold Change in IC50: 42
[9]; after selection
  Ending IC50: 0.797 µg/mL
[9]; before selection
  Starting IC50: 0.019 µg/mL
[10]; starting virus isolate 584.000030
  Fold Change in IC50: 19
[10]; starting virus isolate 584.000030, after selection
  Ending IC50: 0.798 µg/mL
[10]; starting virus isolate 584.000030, before selection
  Starting IC50: 0.042 µg/mL
[11]; starting virus isolate 584.000060
  Fold Change in IC50: 7
[11]; starting virus isolate 584.000060, after selection
  Ending IC50: 0.068 µg/mL
[11]; starting virus isolate 584.000060, before selection
  Starting IC50: 0.01 µg/mL
